Assays:
PurF^EC = PurF^EC (Escherichia coli, UniProt P0AG16); experiment: coupled PurD/PK/LDH NADH assay; format: biochemical; conditions: 30 °C; 50 nM PurF, 5 mM glutamine, 1 mM pRpp-Mg, 10 mM MgCl2, pH 7.4
SpoT1–387 = SpoT1–387 (Pseudomonas aeruginosa, UniProt Q9HTM0); experiment: NDK/PK/LDH coupled NADH assay; format: biochemical
crystal structure = target: the molecule itself; experiment: crystal structure

## Nc1ncnc2c1ncn2[C@@H]1O[C@H](COP(=O)(O)OP(=O)(O)O)[C@@H](OP(=O)(O)OP(=O)(O)O)[C@H]1O [ppApp]
PurF^EC
  activity versus concentration: Changes to the activity of PurF^EC in the presence of indicated concentrations of ppGpp or ppApp
SpoT1–387; 1 mM ppApp, otherwise same
  NDK/PK/LDH coupled NADH assay (A340): ppGpp-hydrolyzing domain of SpoT was substantially less active on ppApp than ppGpp in vitro

## Nc1nc2c(ncn2[C@@H]2O[C@H](COP(=O)(O)OP(=O)(O)O)[C@@H](OP(=O)(O)OP(=O)(O)O)[C@H]2O)c(=O)[nH]1 [ppGpp]
SpoT1–387; 1 mM ppGpp, 10 uM enzyme, 5 mM MnCl2, 2 mM MgCl2, pH 7.4, 30 °C
  NDK/PK/LDH coupled NADH assay (A340): ppGpp-hydrolyzing domain of SpoT was substantially less active on ppApp than ppGpp in vitro

B1: PurF from E. coli (PurF^EC), glutamine amidophosphoribosyltransferase (enzyme, UniProt P0AG16 1-505, looked up)
chain: MCGIVGIAGVMPVNQSIYDALTVLQHRGQDAAGIITIDANNCFRLRKANGLVSDVFEARHMQRLQGNMGIGHVRYPTAGSSSASEAQPFYVNSPYGITLAHNGNLTNAHELRKKLFEEKRRHINTTSDSEILLNIFASELDNFRHYPLEADNIFAAIAATNRLIRGAYACVAMIIGHGMVAFRDPNGIRPLVLGKRDIDENRTEYMVASESVALDTLGFDFLRDVAPGEAIYITEEGQLFTRQCADNPVSNPCLFEYVYFARPDSFIDKISVYSARVNMGTKLGEKIAREWEDLDIDVVIPIPETSCDIALEIARILGKPYRQGFVKNRYVGRTFIMPGQQLRRKSVRRKLNANRAEFRDKNVLLVDDSIVRGTTSEQIIEMAREAGAKKVYLASAAPEIRFPNVYGIDMPSATELIAHGREVDEIRQIIGADGLIFQDLNDLIDAVRAENPDIQQFECSVFNGVYVTKDVDQGYLDFLDTLRNDDAKAVQRQNEVENLEMHNEG
Crystal structure
  stoichiometry N: 4
